For assay [1], the target named is T1, Xanthine dehydrogenase/oxidase (Homo sapiens, UniProt P47989). The assay can be described thus: Inhibition of XOD (unknown origin) using xanthine as substrate at 1 uM preincubated for 30 mins followed by xanthine addition measured after 30 mins by microplate reader relative to control. Particulars: 0.5 h, time 60 min.
The target in assay [2] is T1, Xanthine dehydrogenase/oxidase. The assay can be described thus: Inhibition of XOD (unknown origin).
Assay [3] concerns the target T2, Solute carrier family 22 member 12 (Homo sapiens, UniProt Q96S37).
T2 sequence (Q96S37 whole entry): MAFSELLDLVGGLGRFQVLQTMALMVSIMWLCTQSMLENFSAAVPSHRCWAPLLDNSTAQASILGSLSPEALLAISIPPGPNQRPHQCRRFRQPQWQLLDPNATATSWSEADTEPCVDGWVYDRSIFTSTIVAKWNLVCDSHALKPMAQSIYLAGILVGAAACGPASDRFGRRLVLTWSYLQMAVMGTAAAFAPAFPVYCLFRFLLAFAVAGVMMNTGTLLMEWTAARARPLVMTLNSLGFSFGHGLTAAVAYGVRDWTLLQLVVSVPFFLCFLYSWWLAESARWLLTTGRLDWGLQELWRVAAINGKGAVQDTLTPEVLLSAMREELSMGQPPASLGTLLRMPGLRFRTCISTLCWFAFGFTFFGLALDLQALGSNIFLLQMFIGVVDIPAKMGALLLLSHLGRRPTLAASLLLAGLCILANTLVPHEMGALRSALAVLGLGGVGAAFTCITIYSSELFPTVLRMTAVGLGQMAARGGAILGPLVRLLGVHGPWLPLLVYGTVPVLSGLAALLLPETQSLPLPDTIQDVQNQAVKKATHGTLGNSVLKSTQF
The assay can be described thus: Inhibition of URAT1(unknown origin).

The target of assay [4] is T1, Xanthine dehydrogenase/oxidase. The assay can be described thus: Inhibition of XOD (unknown origin) using xanthine as substrate preincubated for 30 mins followed by xanthine addition measured after 30 mins by microplate reader.

T1 sequence (P47989 whole entry): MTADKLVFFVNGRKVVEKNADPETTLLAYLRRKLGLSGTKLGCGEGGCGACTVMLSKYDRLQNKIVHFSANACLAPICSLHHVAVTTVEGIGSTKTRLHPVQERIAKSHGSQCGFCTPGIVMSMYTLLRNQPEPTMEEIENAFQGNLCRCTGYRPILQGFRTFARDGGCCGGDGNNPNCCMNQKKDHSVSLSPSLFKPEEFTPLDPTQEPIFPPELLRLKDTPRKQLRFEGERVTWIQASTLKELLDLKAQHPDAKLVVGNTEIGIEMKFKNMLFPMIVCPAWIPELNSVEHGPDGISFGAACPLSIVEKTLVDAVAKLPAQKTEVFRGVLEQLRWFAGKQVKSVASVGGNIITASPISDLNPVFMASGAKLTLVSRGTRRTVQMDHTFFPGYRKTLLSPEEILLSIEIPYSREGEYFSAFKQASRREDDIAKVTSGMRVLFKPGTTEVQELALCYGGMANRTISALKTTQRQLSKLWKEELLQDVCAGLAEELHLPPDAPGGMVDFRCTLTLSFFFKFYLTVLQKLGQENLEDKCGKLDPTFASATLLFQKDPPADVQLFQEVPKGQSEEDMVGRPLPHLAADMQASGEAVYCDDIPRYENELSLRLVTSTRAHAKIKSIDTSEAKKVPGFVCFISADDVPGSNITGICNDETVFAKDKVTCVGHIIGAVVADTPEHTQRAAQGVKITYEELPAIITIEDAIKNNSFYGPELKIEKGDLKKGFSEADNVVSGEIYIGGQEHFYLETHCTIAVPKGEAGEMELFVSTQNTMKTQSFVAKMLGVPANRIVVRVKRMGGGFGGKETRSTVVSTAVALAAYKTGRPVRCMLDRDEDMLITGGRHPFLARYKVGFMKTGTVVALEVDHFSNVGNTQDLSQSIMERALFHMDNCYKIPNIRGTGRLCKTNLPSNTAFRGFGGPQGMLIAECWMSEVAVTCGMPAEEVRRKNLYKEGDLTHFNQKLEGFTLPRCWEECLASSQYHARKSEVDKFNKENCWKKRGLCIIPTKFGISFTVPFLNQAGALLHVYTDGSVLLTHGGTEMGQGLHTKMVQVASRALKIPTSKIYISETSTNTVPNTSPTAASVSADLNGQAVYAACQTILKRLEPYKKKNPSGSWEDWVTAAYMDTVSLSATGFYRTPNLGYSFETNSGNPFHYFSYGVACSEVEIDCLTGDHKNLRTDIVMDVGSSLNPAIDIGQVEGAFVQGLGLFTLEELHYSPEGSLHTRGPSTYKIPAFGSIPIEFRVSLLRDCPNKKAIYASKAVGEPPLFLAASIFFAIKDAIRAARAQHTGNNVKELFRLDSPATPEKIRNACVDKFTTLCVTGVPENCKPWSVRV

For `COc1ccc(-c2cc(=O)c3c(O)c(OC)c(OC)cc3o2)cc1` [SALVIGENIN], the inhibition at 1 µM in assay [1] is below 20%.
Still for that read-out and setting: in the case of `COc1cc2c(cc1OC)C(Cc1ccc(O)cc1)N(C)CC2` (configuration not stated) it was below 20%.
`O=c1c(O)c(-c2ccc(O)cc2O)oc2cc(O)cc(O)c12` [MORIN] had an IC50 in assay [2] of 25 µM. The Ki in assay [3] came to 2 µM.
`COc1ccc2c(=O)c(-c3ccc(O)cc3)coc2c1` [ISOFORMONENTIN] showed an inhibition at 1 µM in assay [1] of 25%. The IC50 in assay [4] turned out to be 13 µM.
The molecule `CC1(C)C=Cc2c(ccc3c2O[C@H]2c4ccc(O)cc4OC[C@@H]32)O1` [PHASEOLIN] returned an inhibition at 1 µM in assay [1] below 20%.

In general, inhibition refers to how much of the control response was suppressed. Read a high inhibition as strong suppression. Usually IC50 stands for the point on the concentration scale where inhibition reaches its midpoint. A low value points to greater potency. Usually Ki stands for a measure of affinity in units of concentration, obtained from inhibition or displacement. Higher therefore signals weaker binding.

Values taken from ChEMBL document CHEMBL5370574, “Discovery and Characterization of Moracin C as an Anti-Gouty Arthritis/Hyperuricemia Candidate by Docking-Based Virtual Screening and Pharmacological Evaluation” (J Nat Prod, 2023).
